From patent US11254663B2 (BRISTOL-MYERS SQUIBB COMPANY, priority 2019, dated 2022)

target: FXR (Homo sapiens (Human), UniProt Q96RI1); test: FXR EC50 (FXR agonist potency reported with each Example); assay type: cell-based
Sequence (Q96RI1 262-486): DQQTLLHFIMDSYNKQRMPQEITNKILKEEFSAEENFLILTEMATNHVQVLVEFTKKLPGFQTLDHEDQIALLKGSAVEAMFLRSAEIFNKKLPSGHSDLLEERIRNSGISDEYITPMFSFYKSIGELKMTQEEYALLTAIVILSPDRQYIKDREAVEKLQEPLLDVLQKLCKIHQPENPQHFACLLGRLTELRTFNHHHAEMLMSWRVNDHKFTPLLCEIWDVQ

Row | Compound | EC50 [nM]
1 | O=C([C@H]1C[C@](O)(C(F)(F)F)C1)N(CC12CCC(c3nc(C4CC4)no3)(CC1)CC2)c1cccc(-c2nc(C(F)F)co2)c1 [Example 42, (1s, 3s)-N-((4-(3-cyclopropyl-1,2,4-oxadiazol-5-yl)bicyclo[2.2.2]octan-1-yl)methyl)-N-(3-(4-(difluoromethyl)oxazol-2-yl)phenyl)-3-hydroxy-3-(trifluoromethyl)cyclobutane-1-carboxamide] | 613
2 | O=C(C1CC(C(F)F)C1)N(CC12CCC(c3nc(C4CC4)no3)(CC1)CC2)c1cccc(-c2nc(C(F)F)co2)c1 (stereo not drawn) [Example 43, N-((4-(3-cyclopropyl-1,2,4-oxadiazol-5-yl)bicyclo[2.2.2]octan-1-yl)methyl)-3-(difluoromethyl)-N-(3-(4-(difluoromethyl)oxazol-2-yl)phenyl)cyclobutane-1-carboxamide] | 851
3 | O=C(C1CCC(F)(F)C1)N(CC12CCC(c3nc(C4CC4)no3)(CC1)CC2)c1cccc(-c2nc(C(F)F)co2)c1 (stereo not drawn) [Example 44, N-((4-(3-cyclopropyl-1,2,4-oxadiazol-5-yl)bicyclo[2.2.2]octan-1-yl)methyl)-N-(3-(4-(difluoromethyl)oxazol-2-yl)phenyl)-3,3-difluorocyclopentane-1-carboxamide] | 646
4 | Cc1cnc(C23CCC(CN(C(=O)C45CC(F)(C4)C5)c4cccc(-c5nc(C(F)F)co5)c4)(CC2)CC3)o1 [Example 45, N-(3-(4-(difluoromethyl)oxazol-2-yl)phenyl)-3-fluoro-N-((4-(5-methyloxazol-2-yl)bicyclo[2.2.2]octan-1-yl)methyl)bicyclo[1.1.1]pentane-1-carboxamide] | 258
5 | Cc1cnc(C23CCC(CN(c4cccc(-c5nc(C(F)F)co5)c4)C(=O)[C@H]4C[C@](O)(C(F)(F)F)C4)(CC2)CC3)o1 [Example 46, (cis)-N-(3-(4-(difluoromethyl)oxazol-2-yl)phenyl)-3-hydroxy-N-((4-(5-methyloxazol-2-yl)bicyclo[2.2.2]octan-1-yl)methyl)-3-(trifluoromethyl)cyclobutane-1-carboxamide] | 437
6 | CCc1noc(-c2cccc(N(CC34CCC(c5ccc(C(C)(C)C#N)cc5)(CC3)OC4)C(=O)C34CC(F)(C3)C4)c2)n1 [Example 47, N-((1-(4-(2-cyanopropan-2-yl)phenyl)-2-oxabicyclo[2.2.2]octan-4-yl)methyl)-N-(3-(3-ethyl-1,2,4-oxadiazol-5-yl)phenyl)-3-fluorobicyclo[1.1.1]pentane-1-carboxamide] | 299
7 | CCc1noc(-c2cccc(N(CC34CCC(c5ccc(C(C)(C)C#N)cc5)(CC3)OC4)C(=O)C3CCC3)c2)n1 [Example 48, N-((1-(4-(2-cyanopropan-2-yl)phenyl)-2-oxabicyclo[2.2.2]octan-4-yl)methyl)-N-(3-(3-ethyl-1,2,4-oxadiazol-5-yl)phenyl)cyclobutanecarboxamide] | 299
8 | O=C(C1CC(F)(F)C1)N(CC12CCC(c3cc(C(F)(F)F)ccn3)(CC1)CC2)c1cccc(-c2nc(C3CC3)no2)c1 [Example 49, N-(3-(3-cyclopropyl-1,2,4-oxadiazol-5-yl)phenyl)-3,3-difluoro-N-((4-(4-(trifluoromethyl)pyridin-2-yl)bicyclo[2.2.2]octan-1-yl)methyl)cyclobutane-1-carboxamide] | 1370
9 | O=C(N(CC12CCC(c3cc(C(F)(F)F)ccn3)(CC1)CC2)c1cccc(-c2nc(C3CC3)no2)c1)C12CC(F)(C1)C2 [Example 50, N-(3-(3-cyclopropyl-1,2,4-oxadiazol-5-yl)phenyl)-3-fluoro-N-((4-(4-(trifluoromethyl)pyridin-2-yl)bicyclo[2.2.2]octan-1-yl)methyl)bicyclo[1.1.1]pentane-1-carboxamide] | 462
10 | CCOc1ncc(-c2cccc(N(CC34CCC(c5ccc(C(C)(C)C#N)cc5)(CC3)OC4)C(=O)C34CC(F)(C3)C4)c2)o1 [Example 51, N-((1-(4-(2-cyanopropan-2-yl)phenyl)-2-oxabicyclo[2.2.2]octan-4-yl)methyl)-N-(3-(2-ethoxyoxazol-5-yl)phenyl)-3-fluorobicyclo[1.1.1]pentane-1-carboxamide] | 25
11 | CCCc1ncc(-c2cccc(N(CC34CCC(c5cc(C(F)(F)F)ccn5)(CC3)CC4)C(=O)C34CC(F)(C3)C4)c2)o1 [Example 52, 3-fluoro-N-(3-(2-propyloxazol-5-yl)phenyl)-N-((4-(4-(trifluoromethyl)pyridin-2-yl)bicyclo[2.2.2]octan-1-yl)methyl)bicyclo[1.1.1]pentane-1-carboxamide] | 242
12 | CCOc1nnc(-c2cccc(N(CC34CCC(c5nc(C6CC6)no5)(CC3)CC4)C(=O)C34CC(F)(C3)C4)c2)o1 [Example 53, N-((4-(3-cyclopropyl-1,2,4-oxadiazol-5-yl)bicyclo[2.2.2]octan-1-yl)methyl)-N-(3-(5-ethoxy-1,3,4-oxadiazol-2-yl)phenyl)-3-fluorobicyclo[1.1.1]pentane-1-carboxamide] | 81
13 | CCOc1nnc(-c2cccc(N(CC34CCC(c5nc(C6CC6)no5)(CC3)CC4)C(=O)C3CCC3)c2)o1 [Example 54, N-((4-(3-cyclopropyl-1,2,4-oxadiazol-5-yl)bicyclo[2.2.2]octan-1-yl)methyl)-N-(3-(5-ethoxy-1,3,4-oxadiazol-2-yl)phenyl)cyclobutanecarboxamide] | 215
14 | CCOc1nnc(-c2cccc(N(CC34CCC(c5nc(C6CC6)no5)(CC3)CC4)C(=O)C3CCC(F)(F)C3)c2)o1 (stereo not drawn) [Example 55, N-((4-(3-cyclopropyl-1,2,4-oxadiazol-5-yl)bicyclo[2.2.2]octan-1-yl)methyl)-N-(3-(5-ethoxy-1,3,4-oxadiazol-2-yl)phenyl)-3,3-difluorocyclopentane-1-carboxamide] | 127
15 | CCOc1nnc(-c2cccc(N(CC34CCC(c5nc(C6CC6)no5)(CC3)CC4)C(=O)C3CC(C(F)F)C3)c2)o1 (stereo not drawn) [Example 56, N-((4-(3-cyclopropyl-1,2,4-oxadiazol-5-yl)bicyclo[2.2.2]octan-1-yl)methyl)-3-(difluoromethyl)-N-(3-(5-ethoxy-1,3,4-oxadiazol-2-yl)phenyl)cyclobutane-1-carboxamide] | 275
16 | O=C(N(CC12CCC(c3nc(C4CC4)no3)(CC1)CC2)c1cccc(-c2cc(C3CC3)on2)c1)C12CC(F)(C1)C2 [Example 57, N-((4-(3-cyclopropyl-1,2,4-oxadiazol-5-yl)bicyclo[2.2.2]octan-1-yl)methyl)-N-(3-(5-cyclopropylisoxazol-3-yl)phenyl)-3-fluorobicyclo[1.1.1]pentane-1-carboxamide] | 19.8
17 | O=C(C1CC(C(F)F)C1)N(CC12CCC(c3nc(C4CC4)no3)(CC1)CC2)c1cccc(-c2cc(C3CC3)on2)c1 (stereo not drawn) [Example 58, N-((4-(3-cyclopropyl-1,2,4-oxadiazol-5-yl)bicyclo[2.2.2]octan-1-yl)methyl)-N-(3-(5-cyclopropylisoxazol-3-yl)phenyl)-3-(difluoromethyl)cyclobutane-1-carboxamide] | 39
18 | O=C(C1CCC(F)(F)C1)N(CC12CCC(c3nc(C4CC4)no3)(CC1)CC2)c1cccc(-c2cc(C3CC3)on2)c1 (stereo not drawn) [Example 59, N-((4-(3-cyclopropyl-1,2,4-oxadiazol-5-yl)bicyclo[2.2.2]octan-1-yl)methyl)-N-(3-(5-cyclopropylisoxazol-3-yl)phenyl)-3,3-difluorocyclopentane-1-carboxamide] | 70
